According to patent publication US8445719B2, “Method of stabilizing heme protein and storage solution therefor” (priority 2007, dated 2013):

Legend:
[1] = molecular target: Hemoglobin + feces sample (Homo sapiens, UniProt P68871+P69905); assay: Hemoglobin stabilization effect in storage solution, hemoglobin coexisting with feces sample (residual ratio by immunological measurement); conditions: for Residual ratio, Hemoglobin + feces sample: stored at 37° C. for 20 hours, pH 7.0 HEPES storage solution; for Stabilizing effect (in words): 0.001-0.050 mol/L
Hemoglobin = Hemoglobin (Homo sapiens, UniProt P68871+P69905); assay: Hemoglobin stabilization effect in storage solution, hemoglobin only (residual ratio by immunological measurement); conditions: for Residual ratio, Hemoglobin: stored at 37° C. for 20 hours, pH 7.0 HEPES storage solution; for Stabilizing effect (in words): 0.001-0.050 mol/L
fecal human hemoglobin = fecal human hemoglobin (Homo sapiens, UniProt P68871+P69905); conditions: single use of EDTA
[2] = test solution in which hemoglobin and feces coexist, 37° C., 20 hours
[3] = test solution of hemoglobin only, 37° C., 20 hours

Hemoglobin + feces sample, sequence (P69905 2-142 limits assumed): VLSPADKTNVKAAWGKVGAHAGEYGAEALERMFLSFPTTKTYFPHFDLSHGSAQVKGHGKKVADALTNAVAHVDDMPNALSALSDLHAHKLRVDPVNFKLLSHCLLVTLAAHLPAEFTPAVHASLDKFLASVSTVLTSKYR
Hemoglobin + feces sample, sequence (P68871 2-147 limits assumed): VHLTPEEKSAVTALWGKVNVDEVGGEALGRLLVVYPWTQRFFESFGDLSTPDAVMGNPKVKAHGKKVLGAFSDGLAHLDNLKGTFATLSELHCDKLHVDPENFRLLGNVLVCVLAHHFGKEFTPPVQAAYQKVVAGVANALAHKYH
Hemoglobin, sequence (P69905 2-142 limits assumed): as the sequence (P69905 2-142 limits assumed) above
Hemoglobin, sequence (P68871 2-147 limits assumed): as the sequence (P68871 2-147 limits assumed) above
fecal human hemoglobin, sequence (P69905 2-142 limits assumed): as the sequence (P69905 2-142 limits assumed) above
fecal human hemoglobin, sequence (P68871 2-147 limits assumed): as the sequence (P68871 2-147 limits assumed) above

Compound | Residual ratio, Hemoglobin + feces sample ([1]; 0.001 mol/L agent added) | Residual ratio, Hemoglobin + feces sample ([1]; 0.010 mol/L agent added) | Residual ratio, Hemoglobin + feces sample ([1]; 0.050 mol/L agent added) | Stabilizing effect (in words) [1, 2] | Residual ratio, Hemoglobin (Hemoglobin; 0.001 mol/L agent added) | Residual ratio, Hemoglobin (Hemoglobin; 0.010 mol/L agent added) | Residual ratio, Hemoglobin (Hemoglobin; 0.050 mol/L agent added) | Stabilizing effect (in words) (Hemoglobin; [3]) | further results
O=C(O)CN(CCN(CC(=O)O)CC(=O)O)CC(=O)O [EDTA, ethylenediamine-N,N,N′,N′-4 acetic acid] | 34.3% | 35.8% | 37.1% | slightly higher effect to stabilize hemoglobin was observed | 79.5% | 79.8% | 82.4% | slight stabilizing effect was observed | Stabilizing action on fecal human hemoglobin (in words) (fecal human hemoglobin): sufficient stabilizing action on fecal human hemoglobin cannot be expected
O=C(O)CN(CCO)CC(=O)O [HIDA, N-(2-hydroxyethyl) iminodiacetic acid] | 26.1% | 26.4% | 27.3% | any certain stabilizing effect was not observed | 80.3% | 79.3% | 81.6% | slight stabilizing effect was observed | –
O=C([O-])CC(NC(C(=O)[O-])C(O)C(=O)[O-])C(=O)[O-].[Na+].[Na+].[Na+].[Na+] (centres unmarked) [HIDS, tetrasodium 3-hydroxy-2,2′-iminodisuccinate] | 28.8% | 39.2% | 50.8% | – | 82.8% | 84.2% | 84.1% | – | Residual ratio, Hemoglobin + feces sample ([1]; 0.005 mol/L agent added): 32.3%; Residual ratio, Hemoglobin + feces sample ([1]; 0.075 mol/L agent added): 53.9%; Residual ratio, Hemoglobin + feces sample ([1]; 0.100 mol/L agent added): 55.9%; Residual ratio, Hemoglobin + feces sample ([1]; 0.150 mol/L agent added): 57.8%; Residual ratio, Hemoglobin + feces sample ([1]; 0.200 mol/L agent added): 46.3%; Concentration at which the effect to stabilize hemoglobin was remarkable ([1]; 37° C., 20 hours): ≥ 0.050 mol/L; Concentration at which the stabilizing effect is observed [1, 2]: ≥ 0.005 mol/L; Residual ratio, Hemoglobin (Hemoglobin; 0.005 mol/L agent added): 83.9%; Residual ratio, Hemoglobin (Hemoglobin; 0.075 mol/L agent added): 85.2%; Residual ratio, Hemoglobin (Hemoglobin; 0.100 mol/L agent added): 87.8%; Residual ratio, Hemoglobin (Hemoglobin; 0.150 mol/L agent added): 88.2%; Residual ratio, Hemoglobin (Hemoglobin; 0.200 mol/L agent added): 86.2%; Concentration at which a stabilizing effect was observed (Hemoglobin; [3]): ≥ 0.001 mol/L
O=C(O)CNCC(=O)O [IDA, iminodiacetic acid] | 28.0% | 27.3% | 26.3% | any certain stabilizing effect was not observed | 82.1% | 80.9% | 81.0% | slight stabilizing effect was observed | –
